Activity calls are given as the source filed them. The rule behind the calls is not given here.
Key:
[1] = tested on: Plasmodium falciparum; assay: Antiplasmodial activity against Plasmodium falciparum assessed as growth inhibition; assay type: functional, organism-based
[2] = tested on: Trypanosoma cruzi; assay: Antitrypanosomal activity against Trypanosoma cruzi assessed as growth inhibition; assay type: functional, organism-based
[3] = tested on: L6; assay: Cytotoxicity against rat L6 cells; assay type: cell-based
[4] = tested on: Giardia intestinalis; assay: Antiprotozoal activity against Giardia lamblia assessed as growth inhibition; assay type: functional, organism-based; conditions: Giardia duodenalis
[5] = tested on: Trypanosoma brucei rhodesiense; assay: Antitrypanosomal activity against Trypanosoma brucei rhodesiense assessed as growth inhibition; assay type: functional, organism-based
[6] = tested on: Trypanosoma brucei rhodesiense; assay: Antitrypanosomal activity against Trypanosoma brucei rhodesiense infected mouse model assessed as clear parasitaemia at 50 mg/kg, ip qd for 4 days measured on day 9; assay type: functional, organism-based; parameters: dose 50 mg/kg
[7] = tested on: Trypanosoma brucei rhodesiense; assay: In vivo […] activity against Trypanosoma brucei rhodesiense infected mouse model assessed as clear parasitaemia at 50 mg/kg, ip qd after 4 days; assay type: functional, organism-based; parameters: dose 50 mg/kg
[8] = tested on: Mus musculus; assay: Toxicity in mouse infected with Trypanosoma brucei rhodesiense assessed as death at 50 mg/kg, ip qd after 2 administeration; assay type: organism-based; parameters: dose 50 mg/kg, route intraperitoneal; conditions: in vivo
[9] = tested on: Trypanosoma brucei rhodesiense; assay: Antitrypanosomal activity against Trypanosoma brucei rhodesiense infected mouse model assessed as clear parasitaemia at 50 mg/kg, ip qd for 4 days measured on day 11; assay type: functional, organism-based; parameters: dose 50 mg/kg

Compound | IC50 [2] [nM] | IC50 [5] [nM] | IC50 [1] [nM] | IC50 [3] [nM] | IC50 [4] [nM] | Activity [6] | Activity [7] | Activity [8] | Activity [9]
CCNC(=O)c1noc(-c2cc(C(C)C)c(O)cc2O)c1NC(=O)c1ccco1 | 1380 | 12 | 17 | 25 | 2360 |  |  |  | 
CCNC(=O)c1nnn(-c2cc(C(C)C)c(O)cc2O)c1-c1ccc(CN2CCOCC2)cc1 | 27 | 1 | 1 | 2 | 67 |  |  |  | 
CCNC(=O)c1noc(-c2cc(C(C)C)c(O)cc2O)c1NC(=O)[C@H]1CC[C@H](CNS(=O)(=O)c2ccc(F)cc2)CC1 | 4200 | 126 | 117 | 888 | 7570 |  |  |  | 
COc1cc([C@@H]2c3cc4c(cc3[C@H](O)[C@H]3COC(=O)[C@H]23)OCO4)cc(OC)c1OC [PODOFILOX] |  |  |  | 5 |  |  |  |  | 
CCNC(=O)c1noc(-c2cc(C(C)C)c(O)cc2O)c1NC(=O)c1cc(CN2CCOCC2)on1 | 8060 | 10 | 36 | 279 | 12800 |  |  |  | 
CCNC(=O)c1nnn(-c2cc(C(C)C)c(O)cc2O)c1-c1ccc(CNCN2CCOCC2)cc1 | 17500 | 4 | 4 | 264 | 4460 |  |  | Toxic | 
CCNC(=O)c1noc(-c2cc(C(C)C)c(O)cc2O)c1NC(=O)C1CCC(OC)CC1 (centres undefined) | 2700 | 4 | 12 | 15 | 8110 |  |  |  | 
Nc1nc(N)nc(Nc2ccc([As]3SCC(CO)S3)cc2)n1 (centres undefined) [MELARSOPROL] |  | 3 |  |  |  |  |  |  | 
CCNC(=O)c1nnn(-c2cc(C(C)C)c(O)cc2O)c1-c1ccc(CC2CCCC2)cc1 | 728 | 1 | 2 | 8 | 356 |  |  |  | 
Cc1ncc([N+](=O)[O-])n1CCO [METRONIDAZOLE] |  |  |  |  | 580 |  |  |  | 
CCNC(=O)c1noc(-c2cc(C(C)C)c(O)cc2O)c1NC(=O)CCN1CCOCC1 | 16700 | 22 | 37 | 146 | 983 |  | Active |  | Active

Further molecules by falling IC50 [2], results first:

IC50 [2] [nM] | IC50 [5] [nM] | Compound | IC50 [1] [nM] | IC50 [3] [nM] | IC50 [4] [nM] | Activity [6] | Activity [7] | Activity [8] | Activity [9]
6590 | 18 | CCNC(=O)c1noc(-c2cc(C(C)C)c(O)cc2O)c1NC(=O)c1ccc(CN2CCOCC2)cc1 | 25 | 201 | 9740 | Active | Active |  | 
4960 | 3 | CCNC(=O)c1nnn(-c2cc(C(C)C)c(O)cc2O)c1-c1ccc(Cn2ccnc2)cc1 | 1 | 11 | 400 |  |  |  | 
1460 | 763 | CCNC(=O)c1noc(-c2cc(C(C)C)c(O)cc2O)c1NC(=O)[C@@H]1CC[C@H](C(=O)OC)C1 | 26 | 40 | 6430 |  |  |  | 
996 | 971 | CCNC(=O)c1noc2c1CN(C(=O)c1cc(C(C)C)c(O)cc1O)CC2 | 4520 | 110 | 4360 |  |  |  | 
616 | 52400 | CCOC(=O)c1noc2c1CN(C(=O)c1cc(C(C)C)c(O)cc1O)CC2 | 7260 | 563 | 2460 |  |  |  | 
554 | 18 | CCNC(=O)c1noc(-c2cc(C(C)C)c(O)cc2O)c1NC(=O)c1cc(CC)on1 | 35 | 20 | 4060 |  |  |  | 
435 | 14 | CCNC(=O)c1noc(-c2cc(C(C)C)c(O)cc2O)c1NC(=O)c1ccc(OC)cc1 | 29 | 7 | 3190 |  |  |  | 
409 |  | O=C(Cn1ccnc1[N+](=O)[O-])NCc1ccccc1 [BENZNIDAZOLE] |  |  |  |  |  |  | 
